We go through 5 molecules from patent publication US12115140B2, “Method of treating adenoid cystic carcinoma” (THE TRUSTEES OF COLUMBIA UNIVERSITY IN THE CITY OF NEW YORK, priority 2020, dated 2024).

Series [1] relates to CD49f^low, KIT^+ (ductal-like) and CD49f^high, KIT^neg (myoepithelial-like) cells of human ACCs. Briefly: Flow cytometry of short-term primary cultures from ACC PDX lines: relative content of ductal-like and myoepithelial-like cells. It counts as cell-based. The following applies: for significance of reduction in percentage of CD49f^low, KIT^+ (ductal-like) cells: at both 1 μM and 10 μM, ACCX5M1 and SGTX6, vs NT or DMSO; for percentage of myoepithelial-like cells (CD49f^high, KIT^neg): ACCX5M1, direct agonists, vs DMSO. The text has this: From a histological point of view, ACCs are usually characterized by a “bi-phasic differentiation” (i.e., the malignant tissues contain two distinct cell populations, which are commonly referred to as “myoepithelial-like” and “ductal-like” cells). A combination of cell surface markers (CD49f, KIT) have been discovered which enable the differential purification and accurate quantification of the two populations using fluorescence activated cell sorting (FACS). It has further been discovered that myoepithelial-like (CD49f^high, KIT^neg) cells are associated with more aggressive biological properties as compared to ductal-like (CD49f^low, KIT^+) cells when tested for their tumorigenic capacity (i.e., their capacity to sustain the formation of a new tumor upon xeno-transplantation in immuno-deficient mice).
FIGS. 1A-1F and 2A-2D illustrate the in vitro anti-tumor activity of BMS493 against human ACCs. FIGS. 1A and 1B show the results of a short-term primary culture from a patient-derived xenograft (PDX) line representative of human ACCs with “cribriform” histology (ACCX5M1) treated in vitro with BMS493 (10 μM) for 7 days and then analyzed by flow cytometry. FIGS. 1C and 1D show the results of a short-term primary culture from a patient-derived xenograft (PDX) line representative of human ACCs with “cribriform” histology (SGTX6) treated in vitro with BMS493 (10 μM) for 7 days and then analyzed by flow cytometry. FIGS. 1E and 1F show the results of a short-term primary culture from a patient-derived xenograft (PDX) line representative of human ACCs with “cribriform” histology (ACCX6) treated in vitro with BMS493 (10 μM) for 7 days and then analyzed by flow cytometry.
FIGS. 3A-3I illustrate the in vitro anti-tumor activity of BMS493 and AGN193109 against human ACCs. FIGS. 3A and 3B show comparison plots of short-term primary cultures from two patient-derived xenograft (PDX) lines representative of human ACCs with “cribriform” histology (SGTX6 and ACCX5M1, respectively), which were treated in vitro for 7 days with either BMS493 or AGN193109 and then analyzed by flow cytometry.
For orientation: In flow cytometry, cells or beads pass a laser one at a time.

Series [2] deals with human ACC primary cultures (ACCX5M1, ACCX9). Briefly: Cell viability / cytotoxic activity in primary cultures of ACC PDX lines. The series is classed as cell-based. The following applies: for cell viability: ACCX5M1, vs DMSO control cultures, FIG. 3E; for cytotoxic activity: ACCX9 (solid histology), FIG. 3F. An excerpt: With reference to FIGS. 3E-3F, combination treatments may be used, based on the use of inverse agonists of RAR/RXR signaling (e.g., BMS493 or AGN193109) as radio-sensitizers and/or chemo-sensitizers (i.e., agents able to increase the cytotoxic activity of radiotherapy and/or chemotherapy).

In a further series the test system is ACCX9 primary cultures. Kind of series: Microscope images of ACCX9 primary cultures. The following applies: 10 μM, 7 days. The series is classed as cell-based, human. An excerpt: FIGS. 3G, 3H and 3I are microscope images of ACCX9 primary cultures treated with DMSO, BMS493 and AGN193109, respectively. […] With reference to FIGS. 3E-3F, combination treatments may be used, based on the use of inverse agonists of RAR/RXR signaling (e.g., BMS493 or AGN193109) as radio-sensitizers and/or chemo-sensitizers (i.e., agents able to increase the cytotoxic activity of radiotherapy and/or chemotherapy).

The subject of series [3] is ACCX5M1 organoid cultures, ductal-like (CD49f^low, KIT^+) cells. Kind of series: Organoid cultures of ACCX5M1 PDX line treated one week: inverse agonists versus neutral antagonist, flow cytometry. The series is classed as cell-based, human. Conditions: for killing of ductal-like (CD49f^low, KIT^+) cells: ACCs cultured in vitro as three-dimensional (3D) organoids. The method, then: Further, as shown in FIGS. 6A-10, the efficacies of the inverse agonists BMS493 and AGN193109 were compared against a neutral antagonist (BMS195614). For FIGS. 6A-8, organoid cultures from a patient derived xenograft line (ACCX5M1) were treated for one week with DMSO (as a control), the neutral antagonist (BMS195614, 1 μM, 10 μM) or the inverse agonists (BMS493 1 μM, BMS493 10 μM, AGN193109 10 μM). The graphs display the percentage of KIT+ cells in each culture condition. FIG. 6A is a scatter plot displaying the relative content of myoepithelial-like cells and ductal-like cells in a primary in vitro organoid culture of the ACCX5M1 patient-derived xenograft (PDX) line treated with DMSO for 7 days and analyzed by flow cytometry. FIG. 6B is a scatter plot displaying the relative content of myoepithelial-like cells and ductal-like cells in a primary in vitro organoid culture of the ACCX5M1 patient-derived xenograft (PDX) line treated with the neutral antagonist BMS195614 (1 μM) for 7 days and analyzed by flow cytometry. FIG. 6C is a scatter plot displaying the relative content of myoepithelial-like cells and ductal-like cells in a primary in vitro organoid culture of the ACCX5M1 patient-derived xenograft (PDX) line treated with the neutral antagonist BMS195614 (10 μM) for 7 days and analyzed by flow cytometry.
FIG. 7A is a scatter plot displaying the relative content of myoepithelial-like cells and ductal-like cells in a primary in vitro organoid culture of the ACCX5M1 patient-derived xenograft (PDX) line treated with the inverse agonist BMS493 (1 μM) after one week. FIG. 7B is a scatter plot displaying the relative content of myoepithelial-like cells and ductal-like cells in a primary in vitro organoid culture of the ACCX5M1 patient-derived xenograft (PDX) line treated with the inverse agonist BMS493 (10 μM) for 7 days and analyzed by flow cytometry. FIG. 7C is a scatter plot displaying the relative content of myoepithelial-like cells and ductal-like cells in a primary in vitro organoid culture of the ACCX5M1 patient-derived xenograft (PDX) line treated with the inverse agonist AGN193109 (10 μM) for 7 days and analyzed by flow cytometry. FIG. 8 is a bar graph comparing the percentage of ductal-like (CD49f^low, KIT^+) cells after one week from each of the treatments of FIGS. 6A-7C. FIG. 9 is a bar graph comparing the percentage of ductal-like (CD49f^low, KIT^+) cells after one week from the treatments of FIGS. 6A, 6C, 7B and 7C. FIG. 10 is a bar graph comparing the percentage of EpCAM^+/DAPI^+ cells (i.e., dead epithelial cells) after one week from each of the treatments of FIGS. 6A-7C. […] It should be noted that in FIGS. 8-10, BMS195614 has been abbreviated as “BMS195” due to the available space in the Figures.

Series [4] relates to CD49f^low, KIT^+ (ductal-like) and CD49f^high, KIT^neg (myoepithelial-like) cells of human ACCs. Kind of series: Flow cytometry of short-term primary cultures from ACC PDX lines: relative content of ductal-like and myoepithelial-like cells. The series is classed as cell-based. Conditions: 10 μM, 7 days; ACCX5M1; direct agonists; vs DMSO.
The test system of series [5] is human ACC tumor cells (PDX lines SGTX6, ACCX6, ACCX9, ACCX11). Kind of series: Percentage of dead tumor cells (EpCAM^+/DAPI^+) in primary cultures of ACC PDX lines by flow cytometry. The series is classed as cell-based. The text has this:
It should be noted that in FIGS. 2A and 2B, the percentage of dead tumor cells is reported as a percentage of the human epithelial cells that incorporate DAPI (i.e. EpCAM^+/DAPI^+) and excludes any contaminant of mouse cells from the primary tissues that were used to generate the cultures (i.e. excludes cells expressing H-2K^d and/or mCd45).
It should be noted that in FIGS. 2C and 2D, the percentage of dead tumor cells is reported as a percentage of the human epithelial cells that incorporate DAPI (i.e. EpCAM^+/DAPI^+) and excludes any contaminant of mouse cells from the primary tissues that were used to generate the cultures (i.e. excludes cells expressing H-2K^d and/or mCd45).

Series [6] concerns human ACCs engrafted in mice (ACCX5M1, SGTX6, ACCX9). Briefly: In vivo growth kinetics of ACC PDX lines engrafted subcutaneously in NSG immune-deficient mice. Here is the method:
Three independent patient-derived xenograft (PDX) lines representative of human ACCs (ACCX5M1, SGTX6, ACCX9) were engrafted in the subcutaneous (s.c.) tissue of NOD/SCID/IL2Rγ^−/− (NS G) immune-deficient mice and left growing until they reached a size of approximately 700 mm^3. Tumor-bearing mice were then divided into two cohorts, one of which was treated with BMS493 (40 mg/kg X 3-4 days/week), while the other received only DMSO (i.e., the solvent used as a vehicle to resuspend BMS493).

The test system of series [7] is myoepithelial-like cells (CD49f^high, KIT^neg) isolated by FACS from solid tumors. Briefly: Sorted myoepithelial-like cells (FACS) stimulated in vitro with direct RAR agonist. The series is classed as cell-based, human. Conditions: ATRA 10 μM (also printed 10 mM), 7 days.
Setting [8] is: 7 days, SGTX6 and ACCX5M1, FIGS. 3A, 3B.
The mark [9] stands for this setting: 10 μM, 7 days, ACCX5M1, SGTX6, ACCX6 (cribriform), vs untreated.
The mark [10] stands for this setting: ACCX5M1 organoids, one week, FIG. 8.

Take `Cc1ccc(C2=CCC(C)(C)c3ccc(C#Cc4ccc(C(=O)O)cc4)cc32)cc1` [AGN193109, 4-[2-[5,6-Dihydro-5,5-dimethyl-8-(4-methylphenyl)-2-naphthalenyl]ethynyl]benzoic acid]: in series [1] (setting [8]), the “percentage of CD49f^low, KIT^+ (ductal-like) cells” value is recorded as “dramatic reduction”. Also, the “significance of reduction in percentage of CD49f^low, KIT^+ (ductal-like) cells” value in series [1] is reported as “statistically significant”. Moreover, in series [2], the cell viability result is reported as “reduction in cell viability” and the cytotoxic activity entry was “clear cytotoxic activity”. The “cell morphology in microscope images” value with ACCX9 primary cultures was “widespread cell fragmentation”. Besides, the “killing of ductal-like (CD49f^low, KIT^+) cells” value in series [3] was “able to selectively kill”.
For the molecule `C=C(c1ccc(C(=O)O)cc1)c1cc2c(cc1C)C(C)(C)CCC2(C)C` [bexarotene], the “percentage of myoepithelial-like cells (CD49f^high, KIT^neg)” value in series [1] (10 μM, 7 days) is recorded as “reduction”. The “percentage of ductal-like cells (CD49f^low, KIT^+)” value in series [4] is “increase”.
For the molecule `CC1(C)CC=C(C#Cc2ccccc2)c2cc(/C=C/c3ccc(C(=O)O)cc3)ccc21` [BMS493, 4-[(1E)-2-[5,6-Dihydro-5,5-dimethyl-8-(2-phenylethynyl)-2-naphthalenyl]ethenyl]benzoic acid], in series [1] (setting [9]), the “percentage of CD49f^high, KIT^neg (myoepithelial-like) cells” value is reported as “corresponding relative increase” and the “percentage of CD49f^low, KIT^+ (ductal-like) cells” value is “dramatic reduction”. The “percentage of CD49f^low, KIT^+ (ductal-like) cells” value in series [1] (setting [8]) is “dramatic reduction”. Besides, the “significance of reduction in percentage of CD49f^low, KIT^+ (ductal-like) cells” value in series [1] is reported as “statistically significant”. Further, in series [5] (ACCX9 and ACCX11 (solid histology)), the “percentage of dead (DAPI^+) cells” value is listed as “substantial increase”. Moreover, the “percentage of dead tumor cells (EpCAM^+/DAPI^+)” value in series [5] (SGTX6 and ACCX6 (cribriform), vs NT, DMSO or ATRA) was “substantial increase”. For the same molecule, in series [2], the cell viability entry is “reduction in cell viability” and the cytotoxic activity entry is “clear cytotoxic activity”. Besides, the “cell morphology in microscope images” value with ACCX9 primary cultures was “widespread cell fragmentation”. In addition, the “tumor growth (change in tumor volume over time)” value in series [6] (40 mg/kg X 3-4 days/week, ACCX5M1, SGTX6, ACCX9 s.c. in NSG mice, vs DMSO) was “either growth arrest or tumor shrinkage”. Besides, the “activity against human ACCs engrafted in mice” value in series [6] (dosing regimens from 10 mg/kg (once daily X 21 days) up to 40 mg/kg (4 times/week X 3 weeks)) is reported as “active”. Besides, the “percentage of dead cells (EpCAM^+/DAPI^+)” value in series [3] (ACCX5M1 organoids, one week, BMS493 10 μM, BMS195614 1 μM, 10 μM, FIG. 10) is recorded as “significant increase”. Further, the “killing of ductal-like (CD49f^low, KIT^+) cells” value in series [3] is listed as “able to selectively kill”.
On to `CC1(C)CC=C(c2cnc3ccccc3c2)c2cc(C(=O)Nc3ccc(C(=O)O)cc3)ccc21` [BMS195614], for which, in series [3] (setting [10]), the “change in percentage of ductal-like (CD49f^low, KIT^+) cells on raising concentration from 1 μM to 10 μM” value was “does not translate in a significant decrease”; the “percentage of ductal-like (CD49f^low, KIT^+) cells relative to BMS493 and AGN193109” value was “remains statistically superior”. The “anti-tumor effect relative to inverse agonists BMS493 and AGN193109” value in series [3] (at both doses, 1 μM and 10 μM) is recorded as “clearly systematically inferior”.
With `CC1=C(/C=C/C(C)=C/C=C/C(C)=C/C(=O)O)C(C)(C)CCC1` [ATRA, all-trans retinoic acid], the “percentage of myoepithelial-like cells (CD49f^high, KIT^neg)” value in series [1] (10 μM, 7 days) was “reduction”. Besides, the “differentiation of sorted myoepithelial-like cells into ductal-like cells” value in series [7] was “differentiation of myoepithelial-like cells”. Further, the “percentage of ductal-like cells (CD49f^low, KIT^+)” value in series [4] was “increase”.
